Each structure is given as a SMILES string.

The values that follow come from patent US20250051321A1, “TRICYCLIC DERIVATIVE AND PREPARATION METHOD THEREFOR AND APPLICATION THEREOF” (SHANGHAI JEMINCARE PHARMACEUTICAL CO., LTD., priority 2021, published 2025).

The first assay concerns the target ATX (Homo sapiens (Human), UniProt Q13822). As to the kind of experiment: ATX enzyme inhibition assay (Amplex UltraRed/choline oxidase/HRP, 16:0 Lyso PC substrate). The assay is classed as biochemical. Particulars: assay buffer pH 7.5; read-out: IC50 (nM) pH 7.5. How it is done:
All compounds were prepared as a 10 mM DMSO stock solution.
Solutions at pH 8.5 and pH 7.5 were prepared respectively with the following formulations:
All compounds, including the positive control compound, were diluted 5-fold from 10 mM to 2 mM with DMSO in the first step. The mixture was then diluted to 100 μM with 1× assay buffer.
3. Separate Detection of Compounds with 1× Assay Buffer at Two pH Values:
a) 5 μL of 10× compound diluent was added to a 384-well plate (Greiner 781209) using a motorized pipette (see the “experimental preparation” step). 5 μL of 1× assay buffer containing 5% DMSO was added to both negative and positive control wells. The plate was centrifuged at 300 rpm for 1 minute at room temperature.
b) 2× ATX ([…]) was prepared with 1× assay buffer, and 25 μL of 2× ATX was added to the plate using a motorized pipette. 25 μL of 1× assay buffer was added to the negative control wells and 25 μL of 2× ATX was added to the positive control wells. The plate was centrifuged at 300 rpm for 1 minute at room temperature.
The plate was incubated at room temperature for 10 minutes.
c) 2.5× working solution containing Amplex UltraRed reagent (125 μM), HRP (2.5 U/mL), choline oxidase (1.25 U/mL), and 16:0 Lyso PC (75 μM) was prepared with 1× assay buffer. 20 μL of 2.5× working solution was added to all reaction wells using a motorized pipette. The plate was centrifuged at 300 rpm for 1 minute at room temperature.
d) The plate was detected by SpectraMax with the following procedures: fluorescence mode; excitation at 550 nm; emission at 590 nm; kinetics; read once every 2 minutes; read continuously for 60 minutes.
The calculation formula of % inhibition (i.e., % inhibition rate) was as follows: […]
V0: X-axis is taken as 0 to 30 minutes, Y-axis is taken as fluorescence readings, and the slope corresponding to the straight line fitted by the software GraphPad Prism 8 is the initial response rate.
V0max: Average V0 of the positive control wells in the plate.
V0min: Average V0 of the negative control wells in the plate.
The IC50 of the compounds was calculated from a nonlinear regression line (dose-initial response rate) fitted by % inhibition and log value of compound concentration using the software GrahPad Prism 8.
For orientation: IC50 means the midpoint of a concentration-inhibition curve. In the case of `CN(c1nc(-c2ccc(F)cc2)c(C#N)s1)c1c2c(nc3c(F)cc(N4CCN(CC(=O)N5CC(F)(F)C5)CC4)cc13)CCC2` [Example A15], the half-maximal inhibitory concentration (IC50) was found to be 656 nM.

The assay is the same for the next values; noted with them: assay buffer pH 8.5; read-out: IC50 (nM) pH 8.5.
For `CN(c1nc(-c2ccc(F)cc2)c(C#N)s1)c1c2c(nc3c(F)cc(N4CC5(CN(C(=O)[C@H]6CCOC6)C5)C4)cc13)[C@@H](O)CC2` (single isomer, unassigned) [Example E5-b], the concentration for half-maximal inhibition (IC50) stood at 23.7 nM. Same read-out and setting: with `C[C@@H]1CN(CC(=O)N2CC(O)C2)CCN1c1cc(F)c2nc3c(c(N(C)c4nc(-c5ccc(F)cc5)c(C#N)s4)c2c1)CC[C@@H]3O` (single isomer, unassigned) [Example E6-a] the figure was 18.3 nM; with `C[C@H]1CN(CC(=O)N2CC(O)C2)CCN1c1cc(F)c2nc3c(c(N(C)c4nc(-c5ccc(F)cc5)c(C#N)s4)c2c1)CC[C@H]3O` (single isomer, unassigned) [Example E7-b], 18.9 nM.

Take `C[C@H]1CN(c2cc(F)c3nc4c(c(N(C)c5nc(-c6ccc(F)cc6)c(C#N)s5)c3c2)CC[C@H]4O)CCN1CC(=O)N1CC(O)C1` (single isomer, unassigned) [Example E8-b]: the half-maximal inhibitory concentration (IC50) is 19.4 nM. As for `CN(c1nc(-c2ccc(F)cc2)c(C#N)s1)c1c2c(nc3c(F)cc(N4CC5(CN(C(=O)[C@@H]6CCOC6)C5)C4)cc13)[C@H](O)CC2` (single isomer, unassigned) [Example E13-b], the IC50 is 20.2 nM.

With `CN(c1nc(-c2ccc(F)cc2)c(C#N)s1)c1c2c(nc3c(F)cc(N4CC5(CN(C(=O)C6CCOCC6)C5)C4)cc13)[C@@H](O)CC2` (single isomer, unassigned) [Example E14-a], the IC50 was 16.6 nM. On the same count and under the same terms, as for `CN(c1nc(-c2ccc(F)cc2)c(C#N)s1)c1c2c(nc3c(F)cc(N4CC5(CN(C(=O)C6CCOCC6)C5)C4)cc13)[C@H](O)CC2` (single isomer, unassigned) [Example E14-b], the figure is 14.7 nM; as for `CN(c1nc(-c2ccc(F)cc2)c(C#N)s1)c1c2c(nc3c(F)cc(N4CC5(CN(C(=O)C6(O)CCOCC6)C5)C4)cc13)[C@H](O)CC2` (single isomer, unassigned) [Example E15-b], 18.5 nM.

`CN(c1nc(-c2ccc(F)cc2)c(C#N)s1)c1c2c(nc3c(F)cc(N4CC5(CN(C(=O)C(C)(C)O)C5)C4)cc13)[C@H](O)CC2` (single isomer, unassigned) [Example E16-b]: the IC50 turned out to be 23 nM. Same read-out and setting: as for `CN(c1nc(-c2ccc(F)cc2)c(C#N)s1)c1c2c(nc3c(F)cc(N4CC5(CN(C(=O)N6CCCC6)C5)C4)cc13)[C@@H](O)CC2` (single isomer, unassigned) [Example E17-a], the figure is 22.4 nM. On to `CN(c1nc(-c2ccc(F)cc2)c(C#N)s1)c1c2c(nc3c(F)cc(N4CC5(CN(C(=O)N6CCCC6)C5)C4)cc13)[C@H](O)CC2` (single isomer, unassigned) [Example E17-b], for which the half-inhibitory concentration (IC50) stood at 21.5 nM. Same read-out and setting: with `CN1CC[C@H](C(=O)N2CC3(C2)CN(c2cc(F)c4nc5c(c(N(C)c6nc(-c7ccc(F)cc7)c(C#N)s6)c4c2)CC[C@@H]5O)C3)C1` (single isomer, unassigned) [Example E18-a] the figure was 23.4 nM. `CN1CC[C@H](C(=O)N2CC3(C2)CN(c2cc(F)c4nc5c(c(N(C)c6nc(-c7ccc(F)cc7)c(C#N)s6)c4c2)CC[C@H]5O)C3)C1` (single isomer, unassigned) [Example E18-b]: the IC50 was 37.1 nM. The same measure, in the same setting: with `CN(c1nc(-c2ccc(F)cc2)c(C#N)s1)c1c2c(nc3c(F)cc(N4CC5(CN(C(=O)[C@@H]6COC[C@H]6O)C5)C4)cc13)[C@@H](O)CC2` (single isomer, unassigned) [Example E20-a] the figure was 18.1 nM. The same measure, in the same setting: as for `CN(c1nc(-c2ccc(F)cc2)c(C#N)s1)c1c2c(nc3c(F)cc(N4CC5(CN(C(=O)[C@@H]6COC[C@H]6O)C5)C4)cc13)[C@H](O)CC2` (single isomer, unassigned) [Example E20-b], the figure is 17 nM; as for `CN(c1nc(-c2ccc(F)cc2)c(C#N)s1)c1c2c(nc3c(F)cc(N4CC5(CN(C(=O)[C@H]6COC[C@@H]6O)C5)C4)cc13)[C@@H](O)CC2` (single isomer, unassigned) [Example E20-c], 25.7 nM.

As for `CN(c1nc(-c2ccc(F)cc2)c(C#N)s1)c1c2c(nc3c(F)cc(N4CC5(CN(C(=O)[C@H]6COC[C@@H]6O)C5)C4)cc13)[C@H](O)CC2` (single isomer, unassigned) [Example E20-d], the IC50 came to 29.2 nM. The same measure, in the same setting: as for `CN(c1nc(-c2ccc(F)cc2)c(C#N)s1)c1c2c(nc3c(F)cc(N4CCN(CC(=O)N5CC(O)C5)CC4)cc13)C(O)CC2` (stereo not drawn) [E1-1], the figure is 21.3 nM. Still for that read-out and setting: with `N#Cc1cc(Br)cc(F)c1NC1=CCCC1=O` [E1-2] the figure was 18.2 nM.

Turning to `CN(c1nc(-c2ccc(F)cc2)c(C#N)s1)c1c2c(nc3c(F)cc(N4CCN(CC(=O)N5CC(F)(F)C5)CC4)cc13)CCC2` [Example A15], the concentration for half-maximal inhibition (IC50) amounted to 134 nM. For `CN(c1nc(-c2ccc(F)cc2)c(C#N)s1)c1c2c(nc3c(F)cc(N4CC5(CN(CC(=O)N6CC(O)C6)C5)C4)cc13)CCO2` [Example A23], the IC50 came out at 75.3 nM.

Take `CN(c1nc(-c2ccc(F)cc2)c(C#N)s1)c1c2c(nc3c(F)cc(N4CCN(CC(=O)N5CC(O)C5)CC4)cc13)CCCC2` [Example A27]: the IC50 was 111 nM.

As for `CN(c1nc(-c2ccc(F)cc2)c(C#N)s1)c1c2c(nc3c(F)cc(N4CC5(CN(CC(=O)N6CC(CO)C6)C5)C4)cc13)COC2` [Example A28], the half-inhibitory concentration (IC50) worked out at 226 nM. As for `CN(c1nc(-c2ccc(F)cc2)c(C#N)s1)c1c2c(nc3c(F)cc(N4CC5(CN(CC(=O)N6CC(CO)C6)C5)C4)cc13)CCO2` [Example A29], the IC50 amounted to 111 nM.

As for `C[C@H]1CN(CC(=O)N2CC(O)C2)CCN1c1cc(F)c2nc3c(c(N(C)c4nc(-c5ccc(F)cc5)c(C#N)s4)c2c1)COC3` [Example A30], the IC50 was determined as 22.1 nM. For the molecule `C[C@@H]1CN(CC(=O)N2CC(O)C2)CCN1c1cc(F)c2nc3c(c(N(C)c4nc(-c5ccc(F)cc5)c(C#N)s4)c2c1)COC3` [Example A31], the IC50 came out at 26.9 nM.

In the next assay the test system is plasma LPA 18:1 and LPA 18:2. As to the kind of experiment: Human plasma ex vivo assay (LPA 18:1 / 18:2 by LC-MS/MS). Particulars: 37° C., 2 hours, LPA 18:1, read-out: Human plasma ex vivo assay IC50 (18:1 LPA). It counts as biochemical. How it is done: The collected plasma was centrifuged at 4000 rpm for 15 minutes at 4° C. The supernatant was aliquoted into a 96-well plate (25 μL per well), sealed, and frozen at −80° C. for further use.
LPA 17:0 powder was dissolved in a mixed solution of water: isopropanol: formic acid (1:1:1) to a final concentration of […]. The mixture was aliquoted and frozen at −20° C.
1 volume of formic acid was added to 1000× methanol, mixed well, and stored at 4° C. a) The 96-well plate containing frozen plasma was removed from the −80° C. freezer and thawed on ice at room temperature. b) 6 μL of 50× LPA 17:0 (internal standard) and 264 μL of 0.1% FA were added to a clean well of the 96-well plate; the final concentration of LPA 17:0 (internal standard) was 50 nM. c) 6× compound was 1:3 serially diluted to a total of 8 concentrations, and 5 μL of the compound per well was added to the 96-well plate containing plasma. The maximum final concentration of the compound was 10 μM, and the final concentration of DMSO was 0.1%. The plate was centrifuged at 300 rpm for 30 seconds. The DMSO control sample reacted for 0 hours was used as the minimum value (Min), and the DMSO control sample reacted for 2 hours was used as the maximum value (Max). […]
d) The DMSO sample reacted for 0 hours was rapidly transferred to 0.1% FA solution containing the internal standard in step b) to terminate the reaction and precipitate plasma proteins. e) The 96-well plate containing plasma and compounds was rapidly incubated in a 37° C. incubator for 2 hours. After the incubation, 6 μL of 10× LPA 17:0 and 264 μL of 0.1% FA were added to each well to terminate the reaction and precipitate plasma proteins. […]
f) All the samples were mixed well with a pipette, and centrifuged at 4000 rpm for 10 minutes at 4° C. 150 μL of the supernatant was added to a 96-well U-bottom plate (Thermo 267245), sealed with silica gel, and then loaded. The contents of LPA 18:1 and LPA 18:2 in the samples were detected by LC-MS/MS system.
LPA 18:1(or 18:2) relative content=LPA 18:1(or 18:2) peak area/LPA 17:0 peak area Percentage reduction (%) in plasma LPA18:1(or 18:2)=(Max−X)/(Max−Min)*100 Max: LPA 18:1 (or 18:2) relative content of the DMSO sample reacted for 2 hours Min: LPA 18:1 (or 18:2) relative content of the DMSO sample reacted for 0 hours X: LPA 18:1 (or 18:2) relative content of the sample after compound treatment for 2 hours The IC50 of the compounds was calculated by fitting a nonlinear regression through percentage reduction in plasma LPA 18:1 (or 18:2) and log value of compound concentration using the software GraphPad Prism 8.
Y=Bottom+(Top−Bottom)/(1+10^((Log IC50−X)*Hill Slope))
With `CN(c1nc(-c2ccc(F)cc2)c(C#N)s1)c1c2c(nc3c(F)cc(N4CC5(CN(C(=O)C6CCC(=O)O6)C5)C4)cc13)C(O)CC2` (stereo not drawn) [Example E62], the half-inhibitory concentration (IC50) amounted to 332 nM. On the same count and under the same terms, with `CN(c1nc(-c2ccc(F)cc2)c(C#N)s1)c1c2c(nc3c(F)cc(N4CC5(CN(C(=O)C(C)(C)O)C5)C4)nc13)C(O)CC2` (stereo not drawn) [Example E65] the figure was 369 nM; with `CCc1nc2c(C)cc(N3CCN(CC(=O)N4CC(O)C4)CC3)cn2c1N(C)c1nc(-c2ccc(F)cc2)c(C#N)s1` [GLPG1690, reference compound], 465 nM.

The assay is the same for the next values; noted with them: 37° C., 2 hours, LPA 18:2, read-out: Human plasma ex vivo assay IC50 (18:2 LPA).
Take `CN(c1nc(-c2ccc(F)cc2)c(C#N)s1)c1c2c(nc3c(F)cc(N4CC5(CN(C(=O)C6CCC(=O)O6)C5)C4)cc13)C(O)CC2` (stereo not drawn) [Example E62]: the 50% inhibitory concentration (IC50) was found to be 576 nM. Still for that read-out and setting: with `CN(c1nc(-c2ccc(F)cc2)c(C#N)s1)c1c2c(nc3c(F)cc(N4CC5(CN(C(=O)C(C)(C)O)C5)C4)nc13)C(O)CC2` (stereo not drawn) [Example E65] the figure was 496 nM; with `CCc1nc2c(C)cc(N3CCN(CC(=O)N4CC(O)C4)CC3)cn2c1N(C)c1nc(-c2ccc(F)cc2)c(C#N)s1` [GLPG1690, reference compound], 464 nM.
